Laboratory results reported in US20140155445A1, “Compounds and Methods for Treating Cancer and Diseases of the Central Nervous System” (Osta Biotechnologies Inc., priority 2007, published 2014).
“Also recorded” adds a separate entry of the source.

How the values were obtained:
[1] = target: T1, human HO-1 (hHO-1) in transfected astroglia (Homo sapiens, UniProt P09601); experiment: HO enzyme activity (bilirubin formation) in hHO-1-transfected astrocytes; assay type: cell-based; details: 6.5 μM
T1 construct: containing the entire protein-coding region (866 bp) of the human HO-1 gene; expressed in transfected cells; host or cells: primary rat astrocytes, transient transfection with pcDNA3.1/Zeo.CMV.Flag.hHO-1 (Lipofectamine 2000)
T1 sequence (P09601 1-288): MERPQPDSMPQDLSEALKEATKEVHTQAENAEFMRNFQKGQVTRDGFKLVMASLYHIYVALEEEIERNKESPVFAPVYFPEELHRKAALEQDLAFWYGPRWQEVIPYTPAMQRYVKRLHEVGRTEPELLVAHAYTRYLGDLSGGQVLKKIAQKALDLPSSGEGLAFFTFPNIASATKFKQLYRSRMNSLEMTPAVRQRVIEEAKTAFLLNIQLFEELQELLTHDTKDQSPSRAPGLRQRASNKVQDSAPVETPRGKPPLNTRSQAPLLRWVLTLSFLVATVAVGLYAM
Protocol: Upon reaching >90% confluence, 1×10^6 cells were transiently transfected with 4.0 μg of plasmid DNA-Lipofectamine 2000 complex using Lipofectamine 2000 method according to manufacturer instructions (Invitrogen). […] 12 μg of plasmid DNA and 16 μl of Lipofectamine 2000 reagent were diluted in 1.5 mL opti-MEM I reduced serum medium and incubated for 5 minutes at room temperature with gentle mixing. The two solutions were combined, incubated at room temperature for 20 minutes to promote formation of DNA-lipid complexes and administered to the cells. 2 mL opti-MEM I reduced serum medium was added to the flasks to ensure coverage of the monolayer by the transfection mixture. Following incubation for 6 hours at 37° C., the transfection mixture was replaced with 10 mL of complete media without antibiotics.
A young adult male rat was gas-anesthetized, laid on ice and systemically perfused with ice-cold 0.9% NaCl to get rid of all blood from liver. The liver was then excised on ice and transferred to a cold room (4° C.) and cut into small pieces in cold 0.9% NaCl (3 mL per gram of tissue) with surgical scissors in and placed in a 50 mL tube. The tissue chunks were homogenized with an electric tissue homogenizer and centrifuged at 150×g for […] at 4° C. Similarly, all of the following steps, including centrifugations, were performed at 4° C. The supernatant was centrifuged at 18,000×g for 10 min and further at 30,000×g for 30 min. A saturated solution of ammonium sulfate was added to the 30,000×g supernatant to attain 40% saturation and placed on ice for 10 min. The mixture was centrifuged at 10,000×g for 10 min and supernatant was recovered and transferred to a fresh tube. Sixty percent of saturation was achieved by adding saturation solution of ammonium sulfate to the supernatant. The mixed solution was centrifuged again at 10,000×g for 10 min and […]. […] The dialysate was centrifuged at 10,000 g for 10 min and pellet was discarded. The protein concentration of the supernatant was measured with Bradford reagent (BioRad laboratories, Hercules, Calif.) and adjusted to 10 mg/mL with 0.01 M KPO4, pH7.4. The supernatant was aliquoted and stored at −20° C. ready for use.
Cytosol extracts were prepared for HO activity measurement by the method of Ryter (Ryter, Kvam, Tyrrell 2000). Astroglial monolayers were washed with ice-cold PBS and scraped in ice-cold PBS-EDTA (1 mM, pH 8.0) containing 50 μg/mL protease inhibitor (AEBSF), centrifuged at 150×g at 4° C. and resuspended in 20 mM Tris-HCl (pH 7.4) and 0.25 M sucrose containing protease inhibitors. Cell suspensions were sonicated on ice 2×15 s at 20 W and centrifuged for 20 min at 4° C. at 15,000×g. Protein concentration of supernatant was measured with Bradford method. […] Reaction mixtures were incubated at 37° C. in the dark for 60 min with hard vortex every 10 min. […] HO activity was calculated as nanomoles bilirubin per milligram protein per min, assuming an extinction coefficient of 40/mM/cm in chloroform (see FIG. 8).
Cells were rinsed twice with cold PBS (pH 7.4) and scraped in iced lysis buffer consisting of 1% Nonidet P-40, 50 mM Tris.HCl (pH 7.4), 30 mM NaCl, 25 mM β-glycerophosphate, 10 mM EDTA, 10 mM EGTA, 1 mM MgCl2, and protease inhibitors (10 mM sodium fluoride, 50 μg/mL AEBBSF, 5 μg/mL leupeptin, 5 μg/mL pepstatin, 5 μg/mL aprotinin). […] Protein contents were determined using the Bradford method. […]

[2] = tested on: SKMEL-V human melanoma cells; experiment: Human melanoma model SKMEL-V+ in SCID mice (pilot study); assay type: in vivo
From the text: Human melanoma cells (“SKMEL-V cells”) were derived from SKMEL-24 cells (ATCC) by over expression of mouse VEGF.
Only those cells with >95% viability were used for in-vivo studies.
Once tumors reached a size of approximately 0.7 cm^3, they were removed under sterile condition, sliced into small pieces under a stereo-microscope. Each tissue piece was then reinoculated subcutaneously. Only pieces of approximately the same size and with no signs of necrosis were used.
At the end of the experiment, mice were sacrificed by cervical dislocation and full autopsies were conducted. A picture was taken of tumors from randomly selected mice. The tumors were then fixed in formalin for pathology examination.

In the case of `Brc1ccc(CCC2(Cn3ccnc3)OCCO2)cc1.Cl` [QC-56, 1-((2-(2-(4-Bromophenyl)ethyl)-1,3-dioxolan-2-yl)methyl)-1H-imidazole hydrochloride], the “HO activity in HO-1-transfected astroglia” value ([1]; 18 h, hHO-1-transfected cells, hydrochloride) is reported as “suppressed to levels akin to those of non-transfected and sham-transfected controls; also recorded: significantly attenuated; also recorded: significantly decreased”, the “expression level of flag-tagged HO-1 protein” value ([1]; transiently transfected cells) is reported as “without affecting the expression level of flag-tagged HO-1 protein” and the anti-tumor activity ([2]; 30 and 60 mg/kg i.p.) is reported as “clear anti-tumor activity”. The “tumor volumes vs vehicle alone” value ([2]; QC-56 30 mg/kg (P<0.03) and 60 mg/kg (P<0.02)) was “statistically significantly smaller” and the “potency compared with dacarbazine” value ([2]; QC-56 30 and 60 mg/kg vs dacarbazine 50 mg/kg) was “significantly more potent than dacarbazine”.
